The source of these data is patent EP2150534B1, “ISOQUINOLINONE DERIVATIVES AS NK3 ANTAGONISTS” (H. Lundbeck A/S, priority 2007, dated 2008).

Experiment [1] concerns the target T1, human NK3 receptor (Homo sapiens, UniProt P29371).
T1 construct: expressed in transfected cells; membranes prepared from them
T1 sequence (P29371 1-465): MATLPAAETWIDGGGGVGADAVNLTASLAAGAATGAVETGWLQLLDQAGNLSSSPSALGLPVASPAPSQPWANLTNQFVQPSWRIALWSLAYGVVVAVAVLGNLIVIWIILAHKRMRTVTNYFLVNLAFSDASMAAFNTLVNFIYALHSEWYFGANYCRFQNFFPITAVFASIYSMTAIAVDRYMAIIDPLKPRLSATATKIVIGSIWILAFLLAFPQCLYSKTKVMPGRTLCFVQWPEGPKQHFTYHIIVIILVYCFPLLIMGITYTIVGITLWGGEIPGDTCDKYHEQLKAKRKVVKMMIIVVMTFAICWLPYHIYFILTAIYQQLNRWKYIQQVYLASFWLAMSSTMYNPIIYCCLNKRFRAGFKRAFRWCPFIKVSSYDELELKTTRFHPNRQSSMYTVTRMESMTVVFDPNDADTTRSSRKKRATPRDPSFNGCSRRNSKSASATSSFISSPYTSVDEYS
The experiment can be described thus: NK3 receptor binding assay (SPA-based competition binding with 125I-NKB, membranes of BHK cells). The method, then: Membranepreparation: BHK cells stably expressing the human NK3 receptor were seeded in harvesting plates in Dulbeccos MEM containing GlutaMax (862 mg/l), 1 mM sodium pyruvate, 10% fetal calf serum, 1% Pen/Strep, I mg/ml G418 and were grown at 34 °C in a humidified atmosphere containing 10% CO2. To increase receptor expression, 10 µM trichotatin A was added to the media 24 hours before harvest of the cells at a confluency of app 90%. Prior to the harvesting, the cells were washed twice with PBS without Mg^2+ og Ca^2+ and subsequently scrapped of in 10 ml PBS pr harvesting plate. The cells suspension were centrifuged at 1500xG in three minutes before resuspension in 15 mM Tris-HCl pH 7,5 buffer containing 2 mM MgCl2; 0,3 mM EDTA and 1 mM EGTA (buffer A). The cell suspention was homogenised and subsequently centrifuged at 40000xG in 30 minutes. The membrane-pellet was resuspended in buffer A containing 250 mM sucrose, alliquoted and stored at - 80°C.
Affinity assay description: The assay was performed as a SPA-based competition-binding assay in a 50 mM Tris pH 7.4 assay buffer containing 120 mM NaCl, 3 mM MnCl2, 40 µg/ml bacitracin, 2 µg/ml Chymostatin, 1 µg/ml Phosphoramidon and 4 µg/ml Leupeptin. App 0.02 nM ^125I-NKB was mixed with test compounds before addition of 4 µg of the homogenised NK3 membrane preparation and 0,025 mg SPA beads in a total volume of 60 µl. The assay plate was subsequently under agitation incubated for 90 min at RT. The plate was centrifugated 10 minutes at 500xG and counted in a topcounter 5 minuttes pr well.
The non-specific binding constituted app 5 % of the total binding.
Data points were expressed in percent of the specific binding of ^125I-NKB and the IC50 values (concentration causing 50 percent inhibition of ^125I-NKB specific binding) were determined by non-linear regression analysis using a sigmoidal variable slope curve fitting. The dissociation constant (Ki) were calculated from the Cheng Prusoff equation (Ki = IG50/(1+(L/KD))), where the concentration of free radioligand L is approximated to the concentration of added ^125I-NKB in the assay (app 0,02 nM).
The KD of ^125I-NKB was determined to be 0,7 nM from three independent saturation assays each performed with duplicate determinations. Bmax was app 2 pmol/mg.

The target in experiment [2] is T1, human NK3 receptor. The experiment can be described thus: NK3 receptor efficacy and potency assay (FLIPR Calcium 4 assay, BHK cells; agonist and antagonist mode versus NKB). The format is cell-based. The conditions noted are these: read-out: Potency cIC50. The procedure: BHK cells stably expressing the human NK3 receptor were seeded in 100 µl media in black walled clear-base 96-wells plates (Costar) aiming at a confluency of 95-100% at the day of assay. The assay was performed according to the FLIPR Calcium 4 Assay kit (Molecular Devices). At the day of the assay, the media was removed and the cells were washed once with the HBSS buffer (Hanks BSS buffer, pH 7,4 containing 20 mM Hepes) before 100 µl of a solution of the calcium assay reagent dissolved in the HBSS buffer containing 2,5 mM probinicid was added to the cells. The plates were incubated for 60 min at 34°C, 10% CO2 before use in the FLIPR for examination of fluorescence.
For efficacy and potency evaluation of compounds, these were diluted in HBSS buffer prior to test. For test of agonist activity, 25 µl of the diluted compound solution was added and the plate was analyzed for 5 minutes in the FLIPR. […] The plates were subsequently analyzed for 5 minutes before the assay was terminated. The maximal increase in fluorescence over background following each ligand addition was determined.

Setting [3] is: table of Example 10, affinity obtained as described in Example 9, read-out: Affinity Ki.

Where two headings read alike, the source gives them in different places.

For the molecule `CC[C@H](NC(=O)c1c(CN2CCC(O)(c3cccc(OC)c3)CC2)n(-c2cccc(F)c2)c(=O)c2ccccc12)c1ccccc1` [Example 2iy, 2-(3-Fluoro-phenyl)-3-[4-hydroxy-4-(3-methoxy-phenyl)-piperidin-1-ylmethyl]-1-oxo-1,2-dihydro-isoquinoline-4-carboxylic acid ((S)-1-phenyl-propyl)-amide], at human NK3 receptor [1] (setting [3]), the Ki worked out at 17 nM. Besides, the IC50 on human NK3 receptor [2] was determined as 92 nM.
In the case of `CC[C@H](NC(=O)c1c(CN2CCCNCC2)n(-c2ccccc2)c(=O)c2c(Cl)cccc12)c1ccccc1` [Example 2kh, 8-Chloro-3-[1,4]diazepan-1-ylmethyl-1-oxo-2-phenyl-1,2-dihydro-isoquinoline-4-carboxylic acid ((S)-1-phenyl-propyl)-amide], on human NK3 receptor [1] (setting [3]), the Ki came to 82 nM. Also, the IC50 on human NK3 receptor [2] stood at 120 nM.
In the case of `CC[C@H](NC(=O)c1c(CN2CCC(O)(c3cccc(OC)c3)CC2)n(-c2ccccc2)c(=O)c2c(Cl)cccc12)c1ccccc1` [Example 2kn, 8-Chloro-3-[4-hydroxy-4-(3-methoxy-phenyl)-piperidin-1-ylmethyl]-1-oxo-2-phenyl-1,2-dihydro-isoquinoline-4-carboxylic acid ((S)-1-phenyl-propyl)-amide], the inhibition constant Ki on human NK3 receptor [1] (setting [3]) amounted to 8.7 nM. In addition, the IC50 at human NK3 receptor [2] turned out to be 41 nM.
On to `CC[C@H](NC(=O)c1c(CN2CCN(C(C)(C)C)CC2)n(-c2ccccc2)c(=O)c2c(Cl)cccc12)c1ccccc1` [Example 2ko, 3-(4-tert-Butyl-piperazin-1-ylmethyl)-8-chloro-1-oxo-2-phenyl-1,2-dihydro-isoquinoline-4-carboxylic acid ((S)-1-phenyl-propyl)-amide], for which the Ki on human NK3 receptor [1] (setting [3]) is 11 nM. In addition, the IC50 on human NK3 receptor [2] came to 5.6 nM.
For `CC[C@H](NC(=O)c1c(CN2CCN(C(C)(C)C)CC2)n(-c2ccccc2)c(=O)c2c(F)cccc12)c1ccccc1` [Example 2lj, 3-(4-tert-Butyl-piperazin-1-ylmethyl)-8-fluoro-1-oxo-2-phenyl-1,2-dihydro-isoquinoline-4-carboxylic acid ((S)-1-phenyl-propyl)-amide] the same measures were 18 nM and 16 nM.
For `CC(C)(C)N1CCN(Cc2c(C(=O)N[C@H](c3cccc(F)c3)C3CC3)c3cccc(F)c3c(=O)n2-c2ccccc2)CC1` [Example 2ll, 3-(4-tert-Butyl-piperazin-1-ylmethyl)-8-fluoro-1-oxo-2-phenyl-1,2-dihydro-isoquinoline-4-carboxylic acid [(S)-cyclopropyl-(3-fluoro-phenyl)-methyl]-amide] the same measures were 7.9 nM and 6.3 nM.
In the case of `CC[C@H](NC(=O)c1c(CN2CCC3(CC2)OCCO3)n(-c2ccccc2)c(=O)c2ccccc12)c1ccccc1` [Example 2u, 3-(1,4-Dioxa-8-aza-spiro[4.5]dec-8-ylmethyl)-1-oxo-2-phenyl-1,2-dihydro-isoquinoline-4-carboxylic acid ((S)-1-phenyl-propyl)-amide], on human NK3 receptor [1] (setting [3]), the Ki was found to be 90 nM. Also, at human NK3 receptor [2], the IC50 worked out at 96 nM.
In the case of `CC[C@H](NC(=O)c1c(CN2CCCC2=O)n(-c2ccccc2)c(=O)c2ccccc12)c1ccccc1` [Example 3a, 1-Oxo-3-(2-oxo-pyrrolidin-1-ylmethyl)-2-phenyl-1,2-dihydro-isoquiline-4-carboxylic acid ((S)-1-phenyl-propyl)-amide], the Ki at human NK3 receptor [1] (Ki for the NK3 receptor, table of Example 9, 125I-NKB competition binding, read-out: Ki) worked out at 72 nM; on human NK3 receptor [1] (setting [3]), 88 nM. The IC50 at human NK3 receptor [2] came to 270 nM.
For `CC[C@H](NC(=O)c1c(CN2CCCC2=O)n(-c2ccccc2)c(=O)c2c(Cl)cccc12)c1ccccc1` [Example 3b], at human NK3 receptor [1] (setting [3]), the Ki was 32 nM. For the same molecule, the IC50 on human NK3 receptor [2] is 47 nM.
Turning to `O=C(N[C@H](c1cccc(F)c1)C1CC1)c1c(CN2CCCC2=O)n(-c2ccccc2)c(=O)c2c(Cl)cccc12` [Example 3d, 8-Chloro-1-oxo-3-(2-oxo-pyrrolidin-1-ylmethyl)-2-phenyl-1,2-dihydro-isoquinoline-4-carboxylic acid [(S)-cyclopropyl-(3-fluoro-phenyl)-methyl]-amide], the inhibitory constant (Ki) at human NK3 receptor [1] (setting [3]) stood at 16 nM. At human NK3 receptor [2], the IC50 was found to be 46 nM.
Turning to `Cc1c(C(=O)N[C@H](c2ccccc2)C2CC2)c2cccc(F)c2c(=O)n1-c1ccccc1` [Example 6c, 8-Fluoro-3-methyl-1-oxo-2-phenyl-1,2-dihydro-isoquinoline-4-carboxylic acid ((S)-cyclopropyl-phenyl-methyl)-amide], the inhibition constant Ki on human NK3 receptor [1] (setting [3]) came to 23 nM. Besides, the IC50 on human NK3 receptor [2] was determined as 24 nM.
For `CC(C)(C)N1CCC(Cc2c(C(=O)N[C@H](c3cccc(F)c3)C3CC3)c3cccc(Cl)c3c(=O)n2-c2ccccc2)CC1` [Example 8a, 3-(1-tert-Butyl-piperidin-4-ylmethyl)-8-chloro-1-oxo-2 phenyl-1,2-dihydro-isoquinoline-4-carboxylic acid [(S)-cyclopropyl-(3-fluoro-phenyl)-methyl]-amide] the same measures were 7 nM and 9.9 nM.

As a reminder, the Ki is a dissociation constant, usually derived from enzyme kinetics or from competition with a known ligand.
